Measured values as given in patent US20140093573A1, “NON-ENTERIC COATED PHARMACEUTICAL COMPOSITION AND USE THEREOF” (NATIONAL TAIWAN UNIVERSITY, priority 2012, published 2014).

Tested on: Caco-2 cells
Assay: Cellular uptake study (flow cytometry, confocal microscopy)
Format: cell-based, Human
Conditions: Caco-2 monolayer, 0.5 h incubation, 200 ng/mL coumarin-6 equivalent
Procedure: Caco-2 cell monolayers approximately 21-24 days post seeding were used for the cellular uptake study. Before the experiments, the monolayers were washed with HBSS (pH 7.4) twice and then preincubated with HBSS at 37° C. for 30 min. The HBSS (control), free coumarin-6 solution (200 ng/mL), ERSNPs-C6 or PLGANPs-C6 suspension in HBSS equivalent to 200 ng/mL of coumarin-6 were added in the donor compartment while 3 mL of HBSS was added in the receiver compartment. These Caco-2 cell monolayers were incubated for 0.5 h and 1 h at 37° C. in an atmosphere of 5% CO2 and 90% relative humidity. The flow cytometry and confocal microscopy were used to assess the intracellular fluorescence. After 0.5 h and 1 h of incubation, the cell monolayers were washed with phosphate buffered saline (PBS, pH 7.4) three times following by trypsinization for 5 min (100 μL, 0.25% trypsin EDTA). Trypsinization was stopped by adding 1 mL of cold PBS. Cells were detached from the inserts by pipetting and centrifuged at 1000 rpm for 5 min The cells were resuspended in 2 mL PBS and analyzed by using fluorescent activated flow cytometry (BD FACS Calibur) and BD CellQuest software (BD Biosciences, NJ, USA). This experiment was performed in triplicate.
For confocal microscopic study, after 0.5 hours of incubation at 37° C., cell monolayer was washed with PBS three times. […]

CCN(CC)c1ccc2cc(-c3nc4ccccc4s3)c(=O)oc2c1 [coumarin-6, Coumarin-6]
cellular uptake efficiency (fluorescence intensity of cells): 1.27±0.3%
